From patent US7671062B2, “Modulators of chemokine receptor activity, crystalline forms and process” (Bristol-Myers Squibb Company, priority 2006, dated 2010)
Where two headings read alike, the source gives them in different places.

What was measured:
[1] = target: human cardiac sodium channel SCN5A (Homo sapiens, UniProt Q14524); experiment: Sodium channel patch clamp, HEK-293 cells; type: cell-based; conditions: read-out: Na+ channel patch clamp (% Inhib.)
Experimental: The compound was tested at a protein-free aqueous buffer. For determining steady state inhibition, sodium currents were elicited every 5 seconds using the following voltage protocol: cells were held at a potential of −90 mV and stepped to −20 mV for 60 ms. Effects were calculated by measuring inhibition of peak current during the test pulse to −20 mV. Rate-dependence of inhibition was assessed by stimulation at frequencies of 1 Hz and 4 Hz.

[2] = Intradermal (ID) MCP-1 challenge model in Cynomolgus monkey; type: in vivo; parameters: PMN score / Eos score / Total cell score: scale not given here; conditions: both sexes, cynomolgus monkey, plasma, read-out: Free plasma conc
Experimental: (§1) Intradermal injection of MCP-1 results in the infiltration of mononuclear cells to the injection site. This model was initially developed to assess the inhibitory effect of CCR2 antagonists on the infiltration of mononuclear cells to the skin tissue injected with human MCP-1.
(§2) Immediately after dosing on Day 3, all animals received at least 2 intradermal injections of 10 μg (50 μL/injection ) of human MCP-1 (R & D Systems) and at least 2 intradermal injections of its DPBS control (50 μl/injection) at separate sites on the dorsal thorax. Dermal biopsies of all sites were obtained at approximately 18 hours following MCP-1 (or DPBS) challenge. Biopsies were processed for semi-quantitative histological evaluation. Representative sections of skin samples were examined by light microscopy, microscopic lesions and cellular infiltration were noted, and their incidences were tabulated.
(§3) For both studies, in addition to biopsy analysis, blood was collected and evaluated for complete blood counts and cell differentials. Also evaluated were plasma samples for compound concentrations, and serum samples for systemic inflammatory mediator levels.

[3] = test system: infiltration of mononuclear cells to the skin tissue injected with human MCP-1; experiment: as above; type: in vivo; parameters: PMN score / Eos score / Total cell score: scale not given here; conditions: for inhibition of mononuclear cell infiltration: second study, naive monkeys
Experimental: as §1, §2, §3

monkey PBMC's = experiment: In vitro chemotaxis assay with monkey PBMC's; type: cell-based, Cynomolgus monkey; conditions: Primates, highly variable
Text: (§4) The first employs monkey PBMC's while the second uses L1.2 cells stably transfected with Cyno CCR2.

[4] = target: Cyno CCR2 (Macaca fascicularis); experiment: In vitro chemotaxis assay with L1.2 cells stably transfected with Cyno CCR2; type: cell-based, Cynomolgus monkey
Text: as §4

[5] = test system: EAE, a model of multiple sclerosis; type: in vivo
hERG [6] = target: T1, hERG (Homo sapiens, UniProt Q12809); experiment: hERG patch clamp, HEK-293 cells; conditions: pH 7.4
[7] = Single-dose pharmacokinetics in rats; conditions: rat
Experimental: Male Sprague-Dawley rats (250-300 g) were used for the pharmacokinetic studies. Rats were fasted overnight prior to PO dosing and fed 4 h post dose. Blood samples (˜0.3 mL) were collected from the jugular vein into K2EDTA-containing tubes and then centrifuged at 4° C. (1500-2000×g) to obtain plasma. […] Serial blood samples were obtained at 0.17 (for IV only), 0.25, 0.5, 0.75, 1, 2, 4, 6, 8, and 24 h post dose. Plasma samples, obtained by centrifugation at 4° C. (1500-2000×g), were stored at −20° C. until analysis by LC/MS/MS.
(§5) The pharmacokinetic parameters were obtained by non-compartmental analysis of plasma concentration vs. time data ([…] ™ software, Version 4.2, InnaPhase Corporation, Philadelphia, Pa.). The peak concentration (Cmax) and time for Cmax were recorded directly from experimental observations. The area under the curve from time zero to the last sampling time (AUC(0-T)) was calculated using a combination of linear and log trapezoidal summations. The total plasma clearance (CLTp), steady-state volume of distribution (Vss), apparent elimination half-life (T½) and mean residence time (MRT) were estimated after IV administration. […] The absolute oral bioavailability (F) was estimated as the ratio of dose-normalized AUC values following oral and IV doses.

[8] = Single-dose pharmacokinetics in monkeys; conditions: male, Cynomolgus, cynomolgus monkey
Experimental: The pharmacokinetics of various test compounds were evaluated in male Cynomolgus monkeys in a crossover-design. Monkeys were fasted overnight prior to PO dosing and fed 4 h post dose. […] Serial blood samples (˜0.3 mL) were collected from a femoral artery at 0.17 (IV only), 0.25, 0.5, 0.75, 1, 2, 4, 6, 8, and 24 h post dose, and centrifuged at 4° C. (1500-2000×g) to obtain plasma. Samples were stored at −20° C. until analysis by LC/MS/MS.
as §5

hERG [9] = target: T1, hERG; experiment: hERG flux (Tl+ flux, FLIPR) in HEK293 cells; type: cell-based; parameters: expressed in transfected cells; host or cells: HEK293
Experimental: HEK293 cells stably-expressing hERG channels were grown (37° C., 5% CO2) in Dulbecco's Modified Eagle's Media supplemented with 10% Sigma fetal bovine serum, non-essential amino acids, 2 mM L-glutamine and 500 μg/ml G418, at incubator.
A 2 mM stock of BTC-AM dye (Molecular Probes, Eugene, Oreg.) was prepared in 100% DMSO and then added 1:1 to 10% (w/v) pluronic acid in DMSO on the day of assay. The dye was then diluted in hERG external EP buffer (140 mM NaCl, 4.0 mM KCl, 1.8 mM CaCl2, 1.0 mM MgCl2, 10 mM HEPES, pH 7.3 and 10 mM glucose; all buffer components obtained from Sigma Chemical). This BTC dye mixture (30 μl) was added to the cells and produced a final loading concentration of 2.5 μM. Cells are incubated at 21° C. for 45 minutes.
Test compounds were diluted to 10 mM DMSO in 60 μl. […] Assay-ready plates were generated by stamping 2.5 μl from the DMSO serially diluted plate, which was prepared on the Velocity 11 BioCel. Aqueous plates were created by adding 48 μl of EP buffer and then were diluted 30-45 minutes before the assay was read on the FLIPR. […] Assay-ready aqueous plates were prepared and diluted on a Cybio liquid handler.
Cells loaded with dye were read on the FLIPR384 (Molecular Devices, Sunnyvale, Calif.), which excites the dye using the 488 nm line of an argon laser. […]
The dynamic range of the assay was determined from blanks and totals wells. […]

[10] = Parallel Artificial Membrane Permeability Assay (PAMPA); conditions: mean ± SD (n in parentheses)
Text: The Parallel Artificial Membrane Permeability Assay (PAMPA) consists of a specially formulated lecithin-based lipid combination referred to as the gastrointestinal tract (GIT) lipid. The GIT lipid is used to form a membrane in a sandwich plate assembly similar to that used in the Caco-2 assays. […] The rate of passage of compounds through the PAMPA membrane is used to determine a permeability coefficient (Pc), which can be related to the in vivo passive permeability of the compound.
The permeability coefficient (Pc) of a particular compound is examined in a pH-dependent setting with apical and basolateral pH of 7.4. All experiments are conducted in triplicate determinations.
The PAMPA assay plate (donor side and acceptor side) was combined and allowed to incubate at room temperature for 4 hours. […] The donor, acceptor, reference, and blank plates were read in the SpectraMax UV plate reader. Data was captured by the pION software, which analyzes the spectra and generates Pc values.

CCR2 = CCR2 (Homo sapiens, UniProt P41597); experiment: In vivo receptor occupancy in blood of hCCR2 KI mice, 48-hour TG peritonitis model (Gaddum equation); conditions: for Concentration of Mouse MCP-1 in plasma / Concentration of free Example 1 in plasma: 48-hour TG peritonitis; for % free CCR2 / % mouse MCP-1 bound CCR2 / % of Example 1-bound CCR2: Gaddum equation
Sequence of CCR2 (P41597 whole entry): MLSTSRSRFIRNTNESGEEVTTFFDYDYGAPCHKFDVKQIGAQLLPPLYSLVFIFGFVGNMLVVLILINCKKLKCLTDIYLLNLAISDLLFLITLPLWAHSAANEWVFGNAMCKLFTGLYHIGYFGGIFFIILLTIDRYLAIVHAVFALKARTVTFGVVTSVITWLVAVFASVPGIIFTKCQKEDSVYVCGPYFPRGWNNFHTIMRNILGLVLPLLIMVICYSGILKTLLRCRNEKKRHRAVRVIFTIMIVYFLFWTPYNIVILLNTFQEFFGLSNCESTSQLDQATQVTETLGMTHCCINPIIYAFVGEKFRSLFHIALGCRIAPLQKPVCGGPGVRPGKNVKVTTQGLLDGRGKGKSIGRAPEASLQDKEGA

T1 sequence (Q12809 whole entry): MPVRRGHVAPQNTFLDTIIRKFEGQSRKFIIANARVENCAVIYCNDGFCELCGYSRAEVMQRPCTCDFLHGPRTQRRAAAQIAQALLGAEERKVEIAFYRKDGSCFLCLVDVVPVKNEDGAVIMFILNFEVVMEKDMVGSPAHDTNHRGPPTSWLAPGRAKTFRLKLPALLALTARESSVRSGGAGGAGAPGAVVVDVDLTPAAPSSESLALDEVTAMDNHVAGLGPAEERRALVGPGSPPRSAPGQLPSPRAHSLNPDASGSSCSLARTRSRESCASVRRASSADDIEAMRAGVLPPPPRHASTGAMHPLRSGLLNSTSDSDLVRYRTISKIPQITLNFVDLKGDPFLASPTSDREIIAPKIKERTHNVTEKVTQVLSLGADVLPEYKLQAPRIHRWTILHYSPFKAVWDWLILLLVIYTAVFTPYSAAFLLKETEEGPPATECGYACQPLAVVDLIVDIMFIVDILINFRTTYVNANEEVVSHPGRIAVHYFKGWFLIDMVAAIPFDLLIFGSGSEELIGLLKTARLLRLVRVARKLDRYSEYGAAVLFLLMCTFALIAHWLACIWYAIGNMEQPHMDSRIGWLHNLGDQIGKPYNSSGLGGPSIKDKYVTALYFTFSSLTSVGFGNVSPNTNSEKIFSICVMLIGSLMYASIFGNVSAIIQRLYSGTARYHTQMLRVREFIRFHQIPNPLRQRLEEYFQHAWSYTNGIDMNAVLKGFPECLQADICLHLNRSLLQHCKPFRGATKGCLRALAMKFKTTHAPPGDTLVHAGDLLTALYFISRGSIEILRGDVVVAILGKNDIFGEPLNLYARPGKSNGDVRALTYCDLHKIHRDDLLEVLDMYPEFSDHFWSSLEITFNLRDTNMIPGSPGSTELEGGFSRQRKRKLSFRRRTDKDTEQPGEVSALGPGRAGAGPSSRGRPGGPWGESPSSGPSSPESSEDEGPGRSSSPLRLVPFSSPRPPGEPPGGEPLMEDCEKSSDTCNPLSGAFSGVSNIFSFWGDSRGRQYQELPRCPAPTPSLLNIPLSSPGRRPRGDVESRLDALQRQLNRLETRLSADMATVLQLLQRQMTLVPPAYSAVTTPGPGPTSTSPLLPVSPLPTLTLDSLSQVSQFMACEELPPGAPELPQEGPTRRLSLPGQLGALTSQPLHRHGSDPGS
Sequence of human cardiac sodium channel SCN5A (Q14524 whole entry): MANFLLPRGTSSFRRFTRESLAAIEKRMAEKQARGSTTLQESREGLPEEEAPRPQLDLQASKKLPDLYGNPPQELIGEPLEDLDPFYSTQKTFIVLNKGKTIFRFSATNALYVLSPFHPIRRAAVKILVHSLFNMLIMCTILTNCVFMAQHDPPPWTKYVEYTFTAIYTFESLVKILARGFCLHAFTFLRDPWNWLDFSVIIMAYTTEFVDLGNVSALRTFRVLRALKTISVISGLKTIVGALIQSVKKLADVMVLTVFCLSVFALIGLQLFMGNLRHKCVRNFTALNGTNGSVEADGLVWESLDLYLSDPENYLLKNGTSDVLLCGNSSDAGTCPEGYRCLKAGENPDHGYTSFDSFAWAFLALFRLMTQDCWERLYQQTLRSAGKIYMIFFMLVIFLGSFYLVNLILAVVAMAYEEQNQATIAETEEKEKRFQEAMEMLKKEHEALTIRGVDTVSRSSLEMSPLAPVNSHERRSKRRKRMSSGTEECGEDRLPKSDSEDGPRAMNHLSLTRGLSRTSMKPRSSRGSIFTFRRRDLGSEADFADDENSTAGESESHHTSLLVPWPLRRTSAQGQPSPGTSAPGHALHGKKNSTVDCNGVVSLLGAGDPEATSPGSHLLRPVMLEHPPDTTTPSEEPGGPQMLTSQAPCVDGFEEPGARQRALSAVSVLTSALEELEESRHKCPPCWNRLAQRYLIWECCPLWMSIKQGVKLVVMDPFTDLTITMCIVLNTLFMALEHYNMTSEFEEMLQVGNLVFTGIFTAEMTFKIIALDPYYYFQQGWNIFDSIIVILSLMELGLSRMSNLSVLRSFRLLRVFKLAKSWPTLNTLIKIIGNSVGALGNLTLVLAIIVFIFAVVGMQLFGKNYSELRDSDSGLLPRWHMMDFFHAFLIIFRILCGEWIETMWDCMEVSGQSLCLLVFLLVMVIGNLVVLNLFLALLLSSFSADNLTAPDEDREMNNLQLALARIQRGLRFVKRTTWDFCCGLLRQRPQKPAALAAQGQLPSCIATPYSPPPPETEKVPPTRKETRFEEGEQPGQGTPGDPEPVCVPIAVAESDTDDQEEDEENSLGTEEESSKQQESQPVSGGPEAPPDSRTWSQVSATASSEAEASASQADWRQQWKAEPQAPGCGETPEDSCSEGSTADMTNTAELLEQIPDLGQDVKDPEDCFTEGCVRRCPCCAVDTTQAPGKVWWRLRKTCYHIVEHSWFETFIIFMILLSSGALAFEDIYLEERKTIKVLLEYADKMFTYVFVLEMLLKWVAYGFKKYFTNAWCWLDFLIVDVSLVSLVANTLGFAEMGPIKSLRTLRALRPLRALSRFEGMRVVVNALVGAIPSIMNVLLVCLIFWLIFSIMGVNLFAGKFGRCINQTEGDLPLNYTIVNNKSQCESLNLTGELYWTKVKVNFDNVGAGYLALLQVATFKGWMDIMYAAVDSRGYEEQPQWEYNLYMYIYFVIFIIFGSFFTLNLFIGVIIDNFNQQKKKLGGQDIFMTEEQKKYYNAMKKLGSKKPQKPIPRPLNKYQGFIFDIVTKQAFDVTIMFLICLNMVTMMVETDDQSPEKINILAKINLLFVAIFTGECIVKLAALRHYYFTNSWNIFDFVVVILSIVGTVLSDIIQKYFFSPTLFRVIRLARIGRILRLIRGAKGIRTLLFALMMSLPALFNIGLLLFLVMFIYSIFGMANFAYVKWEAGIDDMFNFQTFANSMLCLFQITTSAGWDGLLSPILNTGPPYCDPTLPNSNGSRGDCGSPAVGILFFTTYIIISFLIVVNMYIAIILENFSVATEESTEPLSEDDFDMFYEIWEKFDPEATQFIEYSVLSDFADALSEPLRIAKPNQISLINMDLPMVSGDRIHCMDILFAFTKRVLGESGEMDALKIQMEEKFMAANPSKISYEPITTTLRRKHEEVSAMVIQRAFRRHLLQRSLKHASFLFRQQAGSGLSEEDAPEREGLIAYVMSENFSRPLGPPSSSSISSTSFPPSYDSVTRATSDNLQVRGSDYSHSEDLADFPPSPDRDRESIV
Sequence of Cyno CCR2 (Macaca fascicularis) (Z9BGH1DMK8 1-374): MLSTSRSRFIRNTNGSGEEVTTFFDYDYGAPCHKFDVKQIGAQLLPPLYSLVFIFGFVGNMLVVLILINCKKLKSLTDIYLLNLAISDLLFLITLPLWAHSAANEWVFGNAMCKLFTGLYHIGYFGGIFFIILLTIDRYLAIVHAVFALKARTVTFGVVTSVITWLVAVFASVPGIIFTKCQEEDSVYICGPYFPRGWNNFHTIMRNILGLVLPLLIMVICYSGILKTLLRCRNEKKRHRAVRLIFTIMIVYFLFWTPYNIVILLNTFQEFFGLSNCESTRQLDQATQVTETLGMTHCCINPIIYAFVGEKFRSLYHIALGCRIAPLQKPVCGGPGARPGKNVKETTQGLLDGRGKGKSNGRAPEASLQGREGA

SMILES: CC(=O)N[C@@H]1C[C@H](N(C)C(C)C)CC[C@@H]1N1CC[C@H](Nc2ncnc3ccc(C(F)(F)F)cc23)C1=O [Example 1, N-((1R,2S,5R)-5-(isopropyl(methyl)amino)-2-((S)-2-oxo-3-(6-(trifluoromethyl)quinazolin-4-ylamino)pyrrolidin-1-yl)cyclohexyl)acetamide]
- inhibition at 10000 nM ([1]; HEK-293 cells expressing human cardiac sodium channel SCN5A, 10,000 nM): 17%
- inhibition at 30000 nM ([1]; HEK-293 cells expressing human cardiac sodium channel SCN5A, 30,000 nM): 19%
- concentration at 18 h ([2]; 6.5 mg/kg once daily for 3 days, Study 1, 6.5 mg/kg oral once daily 3 days, 18 hours): 53 nM
- concentration at 18 h ([2]; 13 mg/kg once daily for 3 days, Study 1, 13 mg/kg oral once daily 3 days, 18 hours): 101 nM
- concentration at 18 h ([2]; 26 mg/kg once daily for 3 days, Study 1, 26 mg/kg oral once daily 3 days, 18 hours): 238 nM
- concentration at 18 h ([2]; Study 2 (naive monkeys), 10 mg/kg oral once daily 3 days): 34 nM
- concentration at 18 h ([2]; Study 2 (naive monkeys), 30 mg/kg oral once daily 3 days): 83 nM
- Eos score ([3]; Study 1, 6.5 mg/kg): 1.3 ± 0.8
- MNC score (inh %) ([3]; Study 1, 6.5 mg/kg): (19%)
- PMN score ([3]; Study 1, 6.5 mg/kg): 0.8 ± 0.3
- Total cell score ([3]; Study 1, 6.5 mg/kg): 4.3 ± 1.6
- MNC score ([3]; Study 1, 6.5 mg/kg, scale of 0 to 4): 2.2 ± 0.6
- Eos score ([3]; Study 1, 13 mg/kg): 1.2 ± 0.6
- MNC score (inh %) ([3]; Study 1, 13 mg/kg): (19%)
- PMN score ([3]; Study 1, 13 mg/kg): 0.7 ± 0.3
- Total cell score ([3]; Study 1, 13 mg/kg): 4.0 ± 0.5
- MNC score ([3]; Study 1, 13 mg/kg, scale of 0 to 4): 2.2 ± 0.3
- Eos score ([3]; Study 1, 26 mg/kg): 0.5 ± 0^
- MNC score (inh %) ([3]; Study 1, 26 mg/kg): (56%)
- PMN score ([3]; Study 1, 26 mg/kg): 0.2 ± 0.3
- Total cell score ([3]; Study 1, 26 mg/kg): 1.8 ± 0.8
- MNC score ([3]; Study 1, 26 mg/kg, scale of 0 to 4): 1.2 ± 0.6
- Eos score ([3]; Study 2, 10 mg/kg): 0.3 ± 0.1
- MNC score ([3]; Study 2, 10 mg/kg): 0.2 ± 0.2
- MNC score (inh %) ([3]; Study 2, 10 mg/kg): (87%)
- PMN score ([3]; Study 2, 10 mg/kg): 0
- Total cell score ([3]; Study 2, 10 mg/kg): 0.5 ± 0.2
- Eos score ([3]; Study 2, 30 mg/kg): 0.6 ± 0.7
- MNC score ([3]; Study 2, 30 mg/kg): 0.1 ± 0.3
- MNC score (inh %) ([3]; Study 2, 30 mg/kg): (91%)
- PMN score ([3]; Study 2, 30 mg/kg): 0.1 ± 0.3
- Total cell score ([3]; Study 2, 30 mg/kg): 0.8 ± 0.8
- infiltration of other cells types such as eosinophils and neutrophils ([3]; first study): inhibited the infiltration
- inhibition of MCP-1 induced infiltration of mononuclear cells to the skin ([3]; first study, 26 mg/kg oral once daily for three days, biopsy 18 hours after MCP-1): 56%
- inhibition of MCP-1 induced infiltration of mononuclear cells to the skin ([3]; first study, 13 and 6.5 mg/kg): lower levels of inhibition
- inhibition of mononuclear cell infiltration ([3]; 10 mg/kg): 87%
- inhibition of mononuclear cell infiltration ([3]; 30 mg/kg): 91%
- IC50 (monkey PBMC's): 5.5 ± 10 nM
- IC50 [4]: 11.4 ± 8 nM
- clinical score ([5]; 55 mg/kg BID oral from day 1, two of the three studies, p<0.05): significantly reduced the clinical score
- total inflammatory cellular infiltrate, histological evaluation of the spinal cord ([5]; Day 22, versus vehicle): did not demonstrate a significant difference
- inhibition at 10000 nM (hERG [6]): 33%
- inhibition at 30000 nM (hERG [6]): 61%
- AUC ([7]; male, Sprague-Dawley, plasma, po, 10 mg/kg): 3.79 µM·h
- Cl ([7]; IV, dose IV/PO mg/kg: 2k 2.5/25, 8a 6/72, 9c 4/43, Example 1 2/10): 43 mL/min/kg
- F % ([7]; dose IV/PO mg/kg: 2k 2.5/25, 8a 6/72, 9c 4/43, Example 1 2/10): 51%
- bioavailability ([8]; in vivo, po, 1.3 mg/kg): 47%
- clearance ([8]; plasma, iv, 1 mg/kg): 23 mL/min/kg
- AUC ([8]; plasma, po, 1.3 mg/kg): 0.836 µM·h
- IC50 (hERG [9]): > 80000 nM
- PAMPA permeability [10]: 443 ± 114 (8) nm/sec
- Concentration of Mouse MCP-1 in plasma (CCR2; 1 mg/kg oral BID): 0.027 nM
- Concentration of free Example 1 in plasma (CCR2; 1 mg/kg oral BID): 1 nM
- % free CCR2 (CCR2; 1 mg/kg): 53.7%
- % mouse MCP-1 bound CCR2 (CCR2; 1 mg/kg): 1.6%
- % of Example 1-bound CCR2 (CCR2; 1 mg/kg): 44.7%
- Concentration of Mouse MCP-1 in plasma (CCR2; 5 mg/kg oral BID): 0.043 nM
- Concentration of free Example 1 in plasma (CCR2; 5 mg/kg oral BID): 4 nM
- % free CCR2 (CCR2; 5 mg/kg): 22.8%
- % mouse MCP-1 bound CCR2 (CCR2; 5 mg/kg): 1.1%
- % of Example 1-bound CCR2 (CCR2; 5 mg/kg): 76.1%
- Concentration of Mouse MCP-1 in plasma (CCR2; 25 mg/kg oral BID): 0.041 nM
- Concentration of free Example 1 in plasma (CCR2; 25 mg/kg oral BID): 24 nM
- % free CCR2 (CCR2; 25 mg/kg): 4.8%
- % mouse MCP-1 bound CCR2 (CCR2; 25 mg/kg): 0.2%
- % of Example 1-bound CCR2 (CCR2; 25 mg/kg): 95.0%
